Experimental data taken from US10144706B2 (BRISTOL-MYERS SQUIBB COMPANY, priority 2016, dated 2018).
Where two headings read alike, the source gives them in different places.

Target: T1, PD-1/PD-L1 interaction (PD-1-Ig / PD-L1-His) (Homo sapiens, UniProt Q9NZQ7)
T1 construct: hPDL1(18-239)-TVMV-His; TVMV protease site linker (C); made in house; host or cells: HEK293T
Test: PD-1/PD-L1 Homogenous Time-Resolved Fluorescence (HTRF) binding assay
Details: PD-L1-His 10 nM, PD-1-Ig 20 nM, read-out: Range or IC50
Text: The ability of the compounds of formula (I) to bind to PD-L1 was investigated using a PD-1/PD-L1 Homogenous Time-Resolved Fluorescence (HTRF) binding assay.
Homogenous Time-Resolved Fluorescence (HTRF) Binding Assay.
The interaction of PD-1 and PD-L1 can be assessed using soluble, purified preparations of the extracellular domains of the two proteins. The PD-1 and PD-L1 protein extracellular domains were expressed as fusion proteins with detection tags, for PD-1, the tag was the Fc portion of Immunoglobulin (PD-1-Ig) and for PD-L1 it was the 6 histidine motif (PD-L1-His). All binding studies were performed in an HTRF assay buffer consisting of dPBS supplemented with 0.1% […] bovine serum albumin and 0.05% (v/v) Tween-20. For the h/PD-L1-His binding assay, inhibitors were pre-incubated with PD-L1-His (10 nM final) for 15 m in 4 μl of assay buffer, followed by addition of PD-1-Ig (20 nM final) in 1 μl of assay buffer and further incubation for 15 m. HTRF detection was achieved using europium crypate-labeled anti-Ig (1 nM final) and allophycocyanin (APC) labeled anti-His (20 nM final). Antibodies were diluted in HTRF detection buffer and 5 μl was dispensed on top of the binding reaction. […] Additional binding assays were established between the human proteins PD-1-Ig/PD-L2-His (20 & 5 nM, respectively) and CD80-His/PD-L1-Ig (100 & 10 nM, respectively). […]

T1 sequence (Q9NZQ7 with tags, fused parts or gaps): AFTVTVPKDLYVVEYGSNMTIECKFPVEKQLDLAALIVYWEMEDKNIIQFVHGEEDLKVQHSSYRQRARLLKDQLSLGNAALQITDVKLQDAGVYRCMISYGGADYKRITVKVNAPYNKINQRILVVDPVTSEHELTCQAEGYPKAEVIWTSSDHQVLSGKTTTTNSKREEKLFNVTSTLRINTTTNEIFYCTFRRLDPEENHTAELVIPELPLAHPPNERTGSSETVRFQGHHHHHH

IC50 (IC50 range class) | IC50 (numeric IC50) | Structure (SMILES)
0.04 to 20 nM |  | Cc1c(COc2cc(OCc3cncc(C#N)c3)c(CNC(C(=O)O)C(C)O)cc2Cl)cccc1-c1cccc(COc2cc(OCc3cncc(C#N)c3)c(CNC(C(=O)O)C(C)O)cc2Cl)c1C (stereo not shown) [Example 40100]
20.1 to 90 nM |  | Cc1c(OCCCN2CC[C@@H](O)C2)cccc1-c1cccc(OCc2cncc(C#N)c2)c1C [Example 3011]
20.1 to 90 nM |  | Cc1c(OCCCNCCS(C)(=O)=O)cccc1-c1cccc(OCCCN2CC[C@@H](O)C2)c1C [Example 2010, (R)-1-(3-((2,2′-dimethyl-3′-(3-((2-(methylsulfonyl)ethyl)amino)propoxy)-[1,1′-biphenyl]-3-yl)oxy)propyl)pyrrolidin-3-ol]
 | 9220 nM | COC(=O)CC(CC(C)C)NCc1cc(Cl)c(OCc2cccc(-c3cccc(COc4cc(OCc5cncc(C#N)c5)c(CNC(CC(=O)OC)CC(C)C)cc4Cl)c3C)c2C)cc1OCc1cncc(C#N)c1 (stereo not shown) [Example 40550]
0.04 to 20 nM |  | Cc1c(COc2cc(OCc3ccc(-n4cccn4)nc3)c(CN[C@H](C(=O)O)[C@@H](C)O)cc2Cl)cccc1-c1cccc(COc2cc(OCc3ccc(-n4cccn4)nc3)c(CN[C@H](C(=O)O)[C@@H](C)O)cc2Cl)c1C [Example 5018, (2S,2′S,3R,3′R)-2,2′-((((((2,2′-dimethyl-[1,1′-biphenyl]-3,3′-diyl)bis(methylene))bis(oxy))bis(2-((6-(1H-pyrazol-1-yl)pyridin-3-yl)methoxy)-5-chloro-4,1-phenylene))bis(methylene))bis(azanediyl))bis(3-hydroxybutanoic acid)]
0.04 to 20 nM |  | Cc1c(COc2cc(OCc3cncc(C#N)c3)c(CN[C@H](C(=O)O)[C@@H](C)OC(C)(C)C)cc2Cl)cccc1-c1cccc(COc2cc(OCc3cncc(C#N)c3)c(CN[C@H](C(=O)O)[C@@H](C)OC(C)(C)C)cc2Cl)c1C [Example 40930]
0.04 to 20 nM |  | Cc1c(COc2cc(OCc3cncc(C#N)c3)c(CN(CC3CCCO3)C(CCO)C(=O)O)cc2Cl)cccc1-c1cccc(COc2cc(OCc3cncc(C#N)c3)c(CN(CC3CCCO3)C(CCO)C(=O)O)cc2Cl)c1C (stereo not shown) [Example 41020]
0.04 to 20 nM |  | Cc1c(COc2cc(OCc3cncc(C#N)c3)c(CN3CC(C(=O)O)C3)cc2Cl)cccc1-c1cccc(COc2cc(OCc3cncc(C#N)c3)c(CN3CC(C(=O)O)C3)cc2Cl)c1C [Example 40420]
20.1 to 90 nM |  | Cc1c(COc2cc(OCc3cc(F)cc(F)c3)c(CN(C)C(C)(CO)CO)cc2Cl)cccc1-c1cccc(COc2cc(OCc3cc(F)cc(F)c3)c(CN(C)C(C)(CO)CO)cc2Cl)c1C [Example 5012, 2,2′-((((((2,2′-dimethyl-[1,1′-biphenyl]-3,3′-diyl)bis(methylene))bis(oxy))bis(5-chloro-2-((3,5-difluorobenzyl)oxy)-4,1-phenylene))bis(methylene))bis(methylazanediyl))bis(2-methylpropane-1,3-diol)]
20.1 to 90 nM |  | O[C@@H]1CCN(CCC2COc3ccc(-c4ccc5c(c4)OC(CCN4CC[C@@H](O)C4)CO5)cc3O2)C1 (stereo partly drawn) [Example 3032, (3R,3′R)-1,1′-((2,2′,3,3′-tetrahydro-[6,6′-bibenzo[b][1,4]dioxine]-3,3′-diyl)bis(ethane-2,1-diyl))bis(pyrrolidin-3-ol)]
20.1 to 90 nM |  | Cc1c(OCCCN(C)CC(O)CO)cccc1-c1cccc(OCCCN2CC[C@@H](O)C2)c1C (mixture of isomers) [Example 2015, 3-((3-((3′-(3-((R)-3-hydroxypyrrolidin-1-yl)propoxy)-2,2′-dimethyl-[1,1′-biphenyl]-3-yl)oxy)propyl)(methyl)amino)propane-1,2-diol]
0.04 to 20 nM |  | Cc1c(COc2cc(O)c(CN[C@@](C)(CO)C(=O)O)cc2Cl)cccc1-c1cccc(COc2cc(O)c(CN[C@@](C)(CO)C(=O)O)cc2Cl)c1C [Example 40160]
20.1 to 90 nM |  | COc1ccccc1N1CCN(CCCOc2cccc(-c3cccc(OCCCN4CC[C@@H](O)C4)c3C)c2C)CC1 [Example 2111, (R)-1-(3-((3′-(3-(4-(2-methoxyphenyl)piperazin-1-yl)propoxy)-2,2′-dimethyl-[1,1′-biphenyl]-3-yl)oxy)propyl)pyrrolidin-3-ol]
20.1 to 90 nM |  | Cc1c(COc2cc(OCc3cc(F)cc(F)c3)c(CN(C)[C@H](C(=O)O)C(C)C)cc2Cl)cccc1-c1cccc(COc2cc(OCc3cc(F)cc(F)c3)c(CN(C)[C@H](C(=O)O)C(C)C)cc2Cl)c1C [Example 5015, (2S,2′S)-2,2′-((((((2,2′-dimethyl-[1,1′-biphenyl]-3,3′-diyl)bis(methylene))bis(oxy))bis(5-chloro-2-((3,5-difluorobenzyl)oxy)-4,1-phenylene))bis(methylene))bis(methylazanediyl))bis(3-methylbutanoic acid)]
0.04 to 20 nM |  | Cc1c(COc2cc(OCc3cncc(C#N)c3)c(CNC(C)CC(=O)O)cc2Cl)cccc1-c1cccc(COc2cc(OCc3cncc(C#N)c3)c(CNC(C)CC(=O)O)cc2Cl)c1C (stereo not shown) [Example 40400]
20.1 to 90 nM |  | Cc1c(OCCCN(C)Cc2ccncc2)cccc1-c1cccc(OCCCN2CC[C@@H](O)C2)c1C [Example 2064, (R)-1-(3-((2,2′-dimethyl-3′-(3-(methyl(pyridin-4-ylmethyl)amino)propoxy)-[1,1′-biphenyl]-3-yl)oxy)propyl)pyrrolidin-3-ol]
 | 22 nM | Cc1c(COc2cc(OCc3cncc(C#N)c3)c(CNC/C=C\C(=O)O)cc2Cl)cccc1-c1cccc(COc2cc(OCc3cncc(C#N)c3)c(CNC/C=C\C(=O)O)cc2Cl)c1C [Example 40730]
90.1 to 1000 nM |  | Cc1c(COc2cc(OCc3cncc(C#N)c3)c(CN3CCC[C@H]3C(N)=O)cc2Cl)cccc1-c1cccc(COc2cc(OCc3cncc(C#N)c3)c(CN3CCC[C@H]3C(N)=O)cc2Cl)c1C [Example 40680]
0.04 to 20 nM |  | CC(=O)c1cc(Cl)c(OCc2cccc(-c3cccc(COc4cc(OCc5cncc(C#N)c5)c(CN[C@H](C(=O)O)[C@@H](C)O)cc4Cl)c3C)c2C)cc1OCc1cncc(C#N)c1 [Example 60020]
0.04 to 20 nM |  | Cc1cc(OCc2cccc(-c3cccc(COc4cc(C)c(CN5CCCC[C@H]5C(=O)O)cc4Cl)c3C)c2C)c(Cl)cc1CN1CCCC[C@H]1C(=O)O [Example 5501, (2S,2′S)-1,1′-(((((2,2′-dimethyl-[1,1′-biphenyl]-3,3′-diyl)bis(methylene))bis(oxy))bis(5-chloro-2-methyl-4,1-phenylene))bis(methylene))bis(piperidine-2-carboxylic acid)]
1000 to 10000 nM |  | Cc1c(OCCCN2CC[C@@H](O)C2)cccc1-c1cccc(S(=O)(=O)NCCC(=O)O)c1C [Example 3020, (R)-3-(3′-(3-(3-hydroxypyrrolidin-1-yl)propoxy)-2,2′-dimethyl-[1,1′-biphenyl]-3-ylsulfonamido)propanoic acid]
90.1 to 1000 nM |  | Cc1c(OCCCNC(CO)c2ccncc2)cccc1-c1cccc(OCCCN2CC[C@@H](O)C2)c1C (stereo partly drawn) [Example 2047, (3R)-1-(3-((3′-(3-((2-hydroxy-1-(pyridin-4-yl)ethyl)amino)propoxy)-2,2′-dimethyl-[1,1′-biphenyl]-3-yl)oxy)propyl)pyrrolidin-3-ol]
90.1 to 1000 nM |  | Cc1c(OCCCN2CC[C@@H](O)C2)cccc1-c1cccc(OCCCN2CCC[C@@H](C(=O)O)C2)c1C [Example 2074, (R)-1-(3-((3′-(3-((R)-3-hydroxypyrrolidin-1-yl)propoxy)-2,2′-dimethyl-[1,1′-biphenyl]-3-yl)oxy)propyl)piperidine-3-carboxylic acid]
0.04 to 20 nM |  | Cc1c(OCCCNCC(O)CO)cccc1-c1cccc(OCCCNCC(O)CO)c1C (mixture of isomers) [Example 2083, 3,3′-((((2,2′-dimethyl-[1,1′-biphenyl]-3,3′-diyl)bis(oxy))bis(propane-3,1-diyl))bis(azanediyl))bis(propane-1,2-diol)]
90.1 to 1000 nM |  | N#Cc1cncc(COc2cc(OCc3cccc(-c4cccc(COc5cc(OCc6cncc(C#N)c6)c(C(=O)NCC6(CO)CC6)cc5Cl)c4Cl)c3Cl)c(Cl)cc2C(=O)O)c1 [Example 90040]
0.04 to 20 nM |  | Cc1c(OCCCNCC(C)(O)CO)cccc1-c1cccc(OCCCNCC(C)(O)CO)c1C (mixture of isomers) [Example 2104, 3,3′-((((2,2′-dimethyl-[1,1′-biphenyl]-3,3′-diyl)bis(oxy))bis(propane-3,1-diyl))bis(azanediyl))bis(2-methylpropane-1,2-diol)]
90.1 to 1000 nM |  | Cc1c(OCCCNCC2CCN(C)CC2)cccc1-c1cccc(OCCCN2CC[C@@H](O)C2)c1C [Example 2044, (R)-1-(3-((2,2′-dimethyl-3′-(3-(((1-methylpiperidin-4-yl)methyl)amino)propoxy)-[1,1′-biphenyl]-3-yl)oxy)propyl)pyrrolidin-3-ol]
> 10000 nM |  | Cc1c(OCCCN2CC[C@@H](O)C2)cccc1-c1ccc(OCCCN2CC[C@H](O)C2)c(OCCCN2CC[C@H](O)C2)c1 [Example 3022, (3S,3′S)-1,1′-(((3′-(3-((R)-3-hydroxypyrrolidin-1-yl)propoxy)-2′-methyl-[1,1′-biphenyl]-3,4-diyl)bis(oxy))bis(propane-3,1-diyl))bis(pyrrolidin-3-ol)]
